In the supplement of paper PMC10307832:

How the values were obtained:
Experiment in all cases: relative viability (nuclei count vs DMSO), 5 days (fraction); higher = more cells survive
[1] = compound: Cc1ccc(C(=O)Nc2ccc(CN3CCN(C)CC3)c(C(F)(F)F)c2)cc1C#Cc1cnc2cccnn12 [Ponatinib] + COc1cccc2cc(-c3nc([C@H]4CC[C@H](C(=O)O)CC4)n4ncnc(N)c34)[nH]c12 [OSI-027] (partner 0.5 µM)
In short: (§1)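 Relative viability was taken as the ratio of nuclei in treated wells to nuclei in vehicle wells. Lung cancer cell lines in 1536-well plates received compounds by pin tool one day after seeding, either one drug alone or a fixed anchor-drug dose plus five library-drug doses (not always all listed) in √10 steps. Nuclei were counted on 4× images after 5 days of treatment, and values are medians of duplicate plates.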

[2] = compound: Cc1ccc(C(=O)Nc2ccc(CN3CCN(C)CC3)c(C(F)(F)F)c2)cc1C#Cc1cnc2cccnn12 [Ponatinib] + C[C@]1(O)C[C@@H](c2nc(-c3ccc4ccc(-c5ccccc5)nc4c3)c3c(N)nccn32)C1 [Linsitinib] (partner 1 µM)
In short: as §1

[3] = compound: Cc1ccc(C(=O)Nc2ccc(CN3CCN(C)CC3)c(C(F)(F)F)c2)cc1C#Cc1cnc2cccnn12 [Ponatinib] + N=C(N)NC(=N)NCCc1ccccc1 [Phenformin] (partner 250 µM)
In short: as §1

[4] = compound: Cc1ccc(Nc2nccc(N(C)c3ccc4c(C)n(C)nc4c3)n2)cc1S(N)(=O)=O [Pazopanib] + CCNC(=O)c1noc(-c2cc(C(C)C)c(O)cc2O)c1-c1ccc(CN2CCOCC2)cc1 [Luminespib] (partner 0.01 µM)
In short: as §1

| Cell Line | relative viability ([1]; first compound 0.002 µM) | relative viability ([1]; first compound 0.006325 µM) | relative viability ([1]; first compound 0.06325 µM) | relative viability ([1]; first compound 0.2 µM) | relative viability ([2]; first compound 0.002 µM) | relative viability ([2]; first compound 0.006325 µM) | relative viability ([2]; first compound 0.06325 µM) | relative viability ([2]; first compound 0.2 µM) | relative viability ([3]; first compound 0.002 µM) | relative viability ([3]; first compound 0.006325 µM) | relative viability ([3]; first compound 0.06325 µM) | relative viability ([3]; first compound 0.2 µM) | relative viability ([4]; first compound 0.01 µM) | relative viability ([4]; first compound 0.03162 µM) | relative viability ([4]; first compound 0.1 µM) | relative viability ([4]; first compound 0.3162 µM) | relative viability ([4]; first compound 1 µM) |
| --- | --- | --- | --- | --- | --- | --- | --- | --- | --- | --- | --- | --- | --- | --- | --- | --- | --- |
| NCI-H460 | 0.605 | 0.56 | 0.637 | 0.49 | 0.74 | 0.795 | 1.1 | 0.744 | 0.489 | 0.501 | 0.549 | 0.573 | 0.0281 | 0.0326 | 0.033 | 0.0276 | 0.0432 |
| LOU-NH91 | 0.675 | 0.762 | 0.746 | 0.741 | 0.995 | 0.966 | 0.977 | 0.942 | 0.683 | 0.73 | 0.766 | 0.676 | 0.335 | 0.336 | 0.331 | 0.324 | 0.275 |
| NCI-H322M | 0.595 | 0.425 | 0.508 | 0.425 | 0.854 | 0.897 | 1.03 | 0.819 | 0.746 | 0.734 | 0.799 | 0.728 | 0.956 | 0.954 | 0.871 | 0.945 | 0.844 |
| NCI-H520 | 0.273 | 0.244 | 0.203 | 0.2 | 0.773 | 1 | 0.867 | 0.628 | 0.392 | 0.552 | 0.291 | 0.18 | 0.234 | 0.235 | 0.227 | 0.218 | 0.214 |
| NCI-H661 | 0.669 | 0.707 | 0.763 | 0.666 | 0.54 | 0.598 | 0.692 | 0.565 | 0.277 | 0.258 | 0.278 | 0.264 | 0.926 | 0.927 | 0.958 | 1.02 | 0.953 |
| NCI-H727 | 0.567 | 0.558 | 0.617 | 0.508 | 0.268 | 0.328 | 0.378 | 0.173 | 0.537 | 0.507 | 0.605 | 0.532 | 0.346 | 0.634 | 0.381 | 0.266 | 0.262 |
| NCI-H1944 | 0.387 | 0.43 | 0.44 | 0.394 | 1.14 | 1.29 | 1.41 | 1.22 | 0.204 | 0.202 | 0.209 | 0.186 | – | 0.784 | 0.771 | 0.86 | 0.857 |
| NCI-H1734 | 0.58 | 0.589 | 0.521 | 0.449 | 0.792 | 0.864 | 1 | 0.754 | 0.395 | 0.393 | 0.347 | 0.303 | 0.18 | 0.207 | 0.182 | 0.179 | 0.208 |
| LXF-289 | 0.735 | 0.808 | 0.916 | 0.714 | 0.936 | 0.959 | 0.992 | 0.933 | 0.513 | 0.545 | 0.525 | 0.445 | 0.74 | 0.713 | 0.69 | 0.67 | 0.729 |
| H3255 | 0.666 | 0.566 | 0.613 | 0.526 | 0.849 | 0.951 | 1.06 | 0.885 | 0.366 | 0.366 | 0.393 | 0.329 | 0.854 | 0.883 | 0.869 | 0.8 | 0.982 |
| 201T | 0.622 | 0.724 | 0.796 | 0.711 | 0.958 | 1.11 | 1.06 | 1.01 | 0.417 | 0.458 | 0.438 | 0.42 | 0.996 | 1.1 | 1.07 | 1.06 | 1.08 |
| NCI-H2126 | 0.779 | 0.818 | 0.845 | 0.563 | 0.735 | 0.703 | 0.793 | 0.809 | 0.509 | 0.544 | 0.558 | 0.543 | 0.93 | 0.928 | 0.903 | 0.846 | 0.946 |
| HOP-62 | 0.727 | 0.759 | 0.883 | 0.72 | 0.902 | 0.663 | 0.868 | 0.773 | 0.602 | 0.635 | 0.633 | 0.624 | 0.79 | 0.89 | 0.915 | 0.953 | 0.981 |
| CAL-12T | 0.571 | 0.523 | 0.568 | 0.418 | 0.791 | 0.773 | 1.12 | 0.899 | 0.529 | 0.541 | 0.668 | 0.601 | 0.434 | 0.321 | 0.974 | 0.426 | 0.783 |
| NCI-H596 | 0.653 | 0.619 | 0.516 | 0.392 | 1.03 | 1.01 | 1.08 | 0.792 | 0.621 | 0.82 | 0.7 | 0.568 | – | 1.05 | 1.02 | 0.908 | 1.19 |
| NCI-H1755 | 0.652 | 0.694 | 0.707 | 0.595 | 0.984 | 0.949 | 1.05 | 0.986 | 0.561 | 0.599 | 0.614 | 0.565 | 0.422 | 0.42 | 0.261 | 0.448 | 0.527 |
| NCI-H2023 | 0.347 | 0.379 | 0.399 | 0.267 | 0.666 | 0.711 | 0.781 | 0.601 | 0.397 | 0.416 | 0.425 | 0.315 | 0.781 | 0.77 | 0.652 | 0.613 | 0.883 |
| NCI-H2009 | 0.486 | 0.496 | 0.759 | 0.545 | 1.11 | 1.16 | 1.11 | 1.1 | 0.426 | 0.432 | 0.522 | 0.467 | 1.04 | 0.989 | 0.988 | 0.955 | 0.854 |
